In brackets after ≈: the same amount, converted by molar mass.
Experiments:
OXYL [1] = molecular target: T1, OXYL (Anneissia japonica, UniProt A0A482DHP7); assay: hemagglutination inhibition, rabbit erythrocytes; assay type: binding; conditions: lectin titer 16; TBS with 0.2% Triton X-100; room temperature, 1 h; glutaraldehyde-fixed trypsinized erythrocytes
T1 construct: signal peptide 1-18 removed; mainly tetramer; HiLyte Fluor 555-labelled for glycan array
Text: hemagglutination inhibition, rabbit erythrocytes on OXYL

OXYL [2] = molecular target: T1, OXYL; assay: glycan array, fluorescence-labelled lectin; assay type: binding; conditions: immobilised glycan (1 mM spotted); HiLyte Fluor 555-labelled OXYL 0-20 μg/mL; 4 °C overnight; weaker than LNnT

T1 sequence (A0A482DHP7 entry or part of it): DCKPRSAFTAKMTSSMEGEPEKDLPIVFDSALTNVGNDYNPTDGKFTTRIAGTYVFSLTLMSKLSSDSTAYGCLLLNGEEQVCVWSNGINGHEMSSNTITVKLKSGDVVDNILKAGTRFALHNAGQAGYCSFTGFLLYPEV

SMILES	Minimum inhibitory conc. (OXYL [1]) [mM]	glycan array, fluorescence-labelled lectin (OXYL [2])
CC(=O)N[C@H]1C(O)O[C@H](CO)[C@@H](O[C@@H]2O[C@H](CO)[C@H](O)[C@H](O)[C@H]2O)[C@@H]1O (some centres unmarked) [N-acetyllactosamine]	3.13 (≈ 1200 µg/mL)	
CC(=O)N[C@H]1[C@H]([C@H](O)[C@H](O)CO)O[C@@](O[C@H]2[C@@H](O)[C@@H](CO)O[C@@H](O[C@H]3[C@H](O)[C@@H](NC(C)=O)C(O)O[C@@H]3CO)[C@@H]2O)(C(=O)O)C[C@@H]1O (some centres unmarked) [compound 2, S3LN]		OXYL could bind to 3-sialylated LacNAc more strongly than to 6-sialylated LacNAc

Source: publication PMC6409975, “Functional Characterization of OXYL, A SghC1qDC LacNAc-specific Lectin from The Crinoid Feather Star Anneissia Japonica” (Marine Drugs, 2019)
